Measurements: patent publication US11452731B2, “Method of treating and preventing loss of cognition” (ENDORECHERCHE, INC., priority 2009, dated 2022)
“Also recorded” adds a separate entry of the source.

Key:
[1] = tested on: ZR-75-1 human breast cancer xenografts; experiment: Tamoxifen and EM-652.HCl alone or combined on growth of ZR-75-1 xenografts in nude mice (FIG. 7); assay type: in vivo; conditions: hydrochloride
human Ishikawa cells = experiment: Alkaline phosphatase activity in human endometrial adenocarcinoma Ishikawa cells (Example 6)
[2] = tested on: ZR-75-1 human breast cancer xenografts; experiment: Growth and response of human ZR-75-1 breast tumors in OVX nude mice, 7 antiestrogens for 161 days with or without estrone (Example 8); assay type: in vivo
Method in brief: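 ZR-75-1 xenografts were grown in ovariectomized nude mice, with estrone implants removed in the OVX control and antiestrogen-alone groups. Antiestrogens were given as suspensions for 161 days. Tumor area came from two perpendicular diameters, and response was assessed at study end using mice surviving at least 84 days.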

[3] = 26-week treatment of ovariectomized rats: lumbar spine BMD, total body fat, serum cholesterol, ALP (Example 4, experiment 2); assay type: in vivo, rat; conditions: OVX rats, 26 weeks
Experimental: Ten to twelve week-old female Sprague-Dawley rats (Crl:CD(SD)Br) (Charles River Laboratory, St-Constant, Canada) weighing approximately 220-270 g at start of treatment were used. […] The animals were housed individually and were allowed free access to tap water and a pelleted certified rodent feed (Lab Diet 5002, Ralston Purina, St-Louis, Mo.). Experiments were conducted in an animal facility approved by the Canadian Council on Animal Care (CCAC) and the Association for Assessment and Accreditation of Laboratory Animal Care (AAALAC) in accordance with the CCAC Guide for Care and Use of Experimental Animals. […] Treatments were initiated on day 2 of the study and were performed once daily during 26 weeks. In both experiments, animals not receiving a test article were treated with the appropriate vehicle alone during the same period. […] QDR 4500A, Hologic, Waltham, Mass.) and a Regional High Resolution Scan software. […] Samples were processed for serum preparation and frozen at -80° C. until assay. Serum cholesterol levels and alkaline phospatase activity (ALP) were determined using the Boehringer Mannheim Diagnostic Hitachi 911 Analyzer (Boehringer Mannheim Diagnostic Laboratory Systems).

[4] = Uterine, vaginal and body weight in estrone-supplemented OVX nude mice (Example 1); assay type: in vivo
Experimental: DHEA was dissolved in 50% ethanol 50% propylene glycol. […] Tumors were measured once a week with Vernier calipers.

[5] = 6 months; cited from earlier work
[6] = Clinical trial ERC-213: DHEA vaginal suppositories for 7 days, maturation index and vaginal pH in postmenopausal women (Example 11); assay type: in vivo
Experimental: Data are expressed as means±SEM (n=9 or 10). *, p<0.05, **, p<0.01, Data on Day 7 versus Data on Day 1.
The primary objective of that study was measurement of the maturation value of the vaginal epithelial cells following daily intravaginal application of DHEA. Forty postmenopausal women were randomized to receive a daily dose of one ovule of the following DHEA concentrations: 0.0%, 0.5% (6.5 mg of DHEA/ovule), 1.0% (13 mg of DHEA/ovule) or 1.8% (23.4 mg of DHEA/ovule) for 7 days. The systemic bioavailability of DHEA and its metabolites were also measured.

[7] = 12-month treatment of ovariectomized rats with DHEA alone or with Flutamide or EM-800: bone histomorphometry, bone markers, serum lipids; assay type: in vivo, rat; conditions: 12 months
[8] = 10% DHEA cream once daily for 12 months in 60 to 70 year old women; assay type: in vivo
Description: The use of estrogen replacement therapy requires the addition of progestins to counteract the endometrial proliferation induced by estrogens while both estrogens and progestins could increase the risk of breast cancer (Bardon et al., 1985; Colditz et al., 1995). In order to avoid the limitations of standard estrogen (ERT) or hormonal replacement therapy (HRT), we have studied the effect of DHEA administration to 60 to 70 year old women for 12 months on bone mineral density, parameters of bone formation and turnover, serum lipids, glucose and insulin, adipose tissue mass, muscular mass, energy, well-being as well as on vaginal and endometrial histology (Diamond et al., 1996; Labrie et al., 1997c). DHEA was administered percutaneously to avoid first passage of the steroid precursor through the liver.
We have thus evaluated the effect of chronic replacement therapy with a 10% DHEA cream applied once daily for 12 months in 60 to 70 year old women (N=15). […] These changes in bone mineral density were accompanied by significant decreases at 12 months of 38% and 22% in urinary hydroxyproline and in plasma bone alkaline phosphatase, respectively (all p<0.05).

[9] = estrone-supplemented, 50 μg daily, 161 days
[10] = Premarin 0.25 mg/kg, SERMs 2.5 mg/kg

## CC1=C(c2ccc(O)cc2)[C@H](c2ccc(OCCN3CCCCC3)cc2)Oc2cc(O)ccc21.Cl [EM-652.HCl, (S)-(+)-7-hydroxy-3-(4′-hydroxyphenyl)-4-methyl-2-(4″-(2′″-piperidinoethoxy)phenyl)-2H-1-benzopyran hydrochloride]
[1]
  effect on growth of ZR-75-1 xenografts: did not exert any stimulatory effect; also recorded: no effect on tumor growth
Human Ishikawa cells; Homo sapiens, Ishikawa, 120 h, read-out: Inhibition of 1 nM E2-induced stimulation of alkaline phosphatase IC50
  IC50: 1.52 ± 0.22 nM
Human Ishikawa cells; Homo sapiens, Ishikawa, 120 h, read-out: Maximal stimulation of alkaline phosphatase % of 1 nM E2 stimulation
  Emax: 1.88 ± 0.26%
Human Ishikawa cells; Ishikawa cells, 5-day incubation, 1 nM E2
  Maximal inhibition of 1 nM E2-induced stimulation of alkaline phosphatase: 98.97 ± 0.174 (18)
[2]; absence of estrone, 200 μg daily, 161 days
  increase of average tumor size over baseline (agonistic effect): did not significantly change
[2]; estrone-stimulated, 50 μg oral daily, 23 weeks
  tumor size lower than the initial value at start of treatment: 26%
[2]; [9]
  complete response, % of tumors: 17%
  partial response, % of tumors: 17%
  progressing tumors, % of tumors: 7%
  stable response, % of tumors: 60%
[3]
  ALP: 78 ± 4 IU
  CHOLESTEROL (serum): 0.98 ± 0.06 mmol/L
  TOTAL FAT: 27.7 ± 1.4 %
  reversal of the fat increase induced by estrogen deficiency: 78%
[3]; [10]
  LUMBAR SPINE BMD: 0.2311 ± 0.0040 g/cm^2
  LUMBAR SPINE Prevention of Bone Loss: 62%

## C[C@]12CC[C@H](O)CC1=CC[C@@H]1[C@@H]2CC[C@]2(C)C(=O)CC[C@@H]12 [DHEA, dehydroepiandrosterone]
[4]; 9.5 months
  effect on body weight adjusted for tumor weight: No significant effect
[4]; highest dose of DHEA used
  inhibition of the stimulatory effect of estrone on uterine weight: 26%
[5]
  decrease of total body fat mass: 1.4 kg
  increase of fat-free mass: 0.9 kg
[6]; 0.5% DHEA vaginal suppository daily
  increase of maturation index, Day 7 versus Day 1: 107%
[6]; 0.5% DHEA, Day 1 (before)
  Vaginal pH: 6.29±0.21
[6]; 0.5% DHEA, Day 7
  Vaginal pH: 5.75±0.27
[6]; 1.0% DHEA vaginal suppository daily
  increase of maturation index, Day 7 versus Day 1: 75%
[6]; 1.0% DHEA, Day 1 (before)
  Vaginal pH: 6.47±0.23
[6]; 1.0% DHEA, Day 7
  Vaginal pH: 5.76±0.22
[6]; 1.8% DHEA vaginal suppository daily
  increase of maturation index, Day 7 versus Day 1: 150%
[6]; 1.8% DHEA, Day 1 (before)
  Vaginal pH: 6.53±0.25
[6]; 1.8% DHEA, Day 7
  Vaginal pH: 5.86±0.28
[7]
  reduction of serum cholesterol versus OVX control: 22%
[7]; OVX rats
  Alkaline phosphatase (serum): 201±25 IU/L
  CHOLESTEROL (serum): 1.78 ± 0.16 mmol/L
  OH-proline/creatinin (urine): 7.3±1.0 μmol/mmol
  Triglycerides (serum): 0.8 ± 0.1 mmol/L
  increase in trabecular bone number compared to ovariectomized controls: 137%
  trabecular bone number: 1.27±0.1 per mm
  trabecular bone volume of the tibia: 11.9±0.6%
[8]
  decrease in fasting plasma insulin levels: 17%
  decrease in plasma bone alkaline phosphatase: 22%
  decrease in subcutaneous skin fold thickness: 9.8%
  decrease in urinary hydroxyproline: 38%
  decrease of fasting plasma glucose: 12%
  decrease of femoral fat (mid-thigh, computed tomography): 3.8%
  effect on the endometrium: remained completely atrophic
  increase in femoral muscular area: 3.5%
  increase of bone mass density at the hip: 2.3%
  increase of bone mass density at the hip Ward's triangle: 3.75%
  increase of bone mass density at the lumbar spine level: 2.2%
  increase of the index of sebum secretion: 79%
  increase over control in plasma osteocalcin: 135%
  women with stimulated vaginal epithelium maturation among those with a maturation value of zero at onset: 8 out of 10
